In patent US6090945A, “Tetrahydro-beta-carbolines” (Eli Lilly and Company, priority 1998, dated 2000):
Structures can show the parent of a compound that is named as a salt. Where two headings read alike, the source gives them in different places.

Experiments:
5-HT2 receptor = 5-HT2 receptor (Rattus norvegicus, UniProt P14842); test: 5-HT2 radioligand binding assay ([3H]ketanserin displacement); design: species or system rat (Sprague-Dawley cerebral cortex)
5-HT1c receptor [1] = biological target: T1, 5-HT1c receptor (Bos taurus, UniProt A0AAA9SBU1); test: 5-HT1c radioligand binding assay ([3H]mesulergine displacement); conditions: read-out: 5HT1C IC50 (binding displacement); choroid plexus; tritiated mesulergine 2.0 nM; 37° C., 15 minutes
T1 sequence (A0AAA9SBU1 33-457): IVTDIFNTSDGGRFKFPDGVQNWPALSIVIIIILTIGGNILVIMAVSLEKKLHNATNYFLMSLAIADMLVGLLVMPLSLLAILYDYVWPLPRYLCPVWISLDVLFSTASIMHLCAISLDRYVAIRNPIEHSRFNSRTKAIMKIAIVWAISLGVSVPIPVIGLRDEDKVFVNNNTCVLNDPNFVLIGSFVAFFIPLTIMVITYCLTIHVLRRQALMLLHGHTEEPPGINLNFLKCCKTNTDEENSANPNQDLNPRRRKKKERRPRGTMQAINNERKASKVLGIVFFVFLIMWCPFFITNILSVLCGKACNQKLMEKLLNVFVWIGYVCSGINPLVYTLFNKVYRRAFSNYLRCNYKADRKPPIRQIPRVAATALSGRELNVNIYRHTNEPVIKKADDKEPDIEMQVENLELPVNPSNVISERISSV
Experimental: I. Assay for 5-HT1c Affinity
(§1) Beef brain was removed immediately after slaughter, and choroid plexus were dissected over ice. […] Tissues were homogenized in 9 volumes of 0.32 mol/L sucrose and centrifuged at 1,000×g for 10 minutes. The supernatant was centrifuged at 17,000×g for 20 minutes. The pellet was suspended in 100 volumes of 50 mM Tris-HCl (pH7.4), incubated at 37° C. for 10 minutes and centrifuged at 50,000×g for 10 minutes, and the process was repeated three times. The final pellets were frozen at -70° C. and used within 2 weeks. Pellets were rehydrated with physiological buffer prior to use.
(§2) The reactions were terminated by rapid filtration, (Brandel Cell Harvestor), through Whatman GF/B glass filters that had been presoaked in Tris buffer pH 7.4. The filters were then washed 2 times with 5 ml of ice cold Tris buffer pH 7.4. Washed filters were placed in scintillation vials and 10 ml RedySolv, (Brandel), was added and samples were counted in a Searle D-300 beta counter. Means and standard error statistics were calculated for triplicate experimental determinations in certain cases. Mean values were obtained from three or more separate determinations. The incubation time for the reaction mixture was 15 minutes at 37° C.

5-HT1c receptor [2] = test: as above; conditions: versus 5-HT2, as shown by Table II
Experimental: I. Assay for 5-HT1c Affinity
as §1, §2

[3] = rat cerebral cortex, tritiated ketanserin 1 nM, 37° C., read-out: 5HT2 IC50 (binding displacement)

5-HT2 receptor, sequence (P14842 whole entry): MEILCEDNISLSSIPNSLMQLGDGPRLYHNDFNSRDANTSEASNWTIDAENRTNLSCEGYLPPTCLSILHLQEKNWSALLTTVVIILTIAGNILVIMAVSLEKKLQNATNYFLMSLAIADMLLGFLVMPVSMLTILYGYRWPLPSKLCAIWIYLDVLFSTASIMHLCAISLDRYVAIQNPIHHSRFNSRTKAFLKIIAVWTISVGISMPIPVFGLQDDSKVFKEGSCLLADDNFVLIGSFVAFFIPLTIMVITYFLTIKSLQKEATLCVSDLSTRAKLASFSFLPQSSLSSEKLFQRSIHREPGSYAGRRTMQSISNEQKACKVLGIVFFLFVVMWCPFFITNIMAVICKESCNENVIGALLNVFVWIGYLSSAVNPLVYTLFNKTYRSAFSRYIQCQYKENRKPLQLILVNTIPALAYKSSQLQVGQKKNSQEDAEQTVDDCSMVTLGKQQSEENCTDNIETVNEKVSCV

Q: `COc1ccc(CC2NCCc3c2[nH]c2c(C)cc(C)cc32)cc1OC` (stereo not shown) [Example 14, 6,8-dimethyl-1,2,3,4-tetrahydro-1-[(3,4-dimethoxyphenyl)methyl]-9H-pyrido[3,4b]indole hydrochloride] was tested. Which IC50 (5-HT2 receptor; [3]) did it give?
A: > 100 nM

Q: What about the IC50 (5-HT1c receptor [1]) of the same compound?
A: 34 nM

Q: `COc1ccc(CC2NCCc3c2[nH]c2c(Br)cc(C)cc32)cc1OC.Cl` (stereo not shown) [Example 4, 6-methyl-8-bromo-1-[(3,4-dimethoxyphenyl)-methyl]-1,2,3,4-tetrahydro-9H-pyrido[3,4-b]indole hydrochloride] was tested. Which IC50 (5-HT2 receptor) did it give?
A: 132 nM

Q: What about the IC50 (5-HT1c receptor [1]) of the same compound?
A: 20 nM

Q: And the “5-HT1c selectivity (low IC50 in 5-HT1c assay, higher IC50 in 5-HT2 assay)” value (5-HT1c receptor [2])?
A: particularly 5-HT1c selective

Q: Which results are given for `COc1ccc(CC2NCCc3c2[nH]c2c(Br)cccc32)cc1OC` (stereo not shown) [Example 2, 8-bromo-1-[(3,4-dimethoxyphenyl)methyl]-1,2,3,4-tetrahydro-9H-pyrido[3,4-b]indole hydrochloride]?
A: IC50 (5-HT2 receptor): 67 nM; IC50 (5-HT1c receptor [1]): 34 nM

Q: With `COc1ccc(CC2NCCc3c2[nH]c2c(Br)c(C)ccc32)cc1OC.Cl` (stereo not shown) [Example 7, 7-methyl-8-bromo-1-[(3,4-dimethoxyphenyl)-methyl]-1,2,3,4-tetrahydro-9H-pyrido[3,4-b]indole hydrochloride] as the compound, how does the IC50 (5-HT2 receptor) read?
A: > 100 nM

Q: And the IC50 (5-HT1c receptor [1])?
A: 5.1 nM

Q: And the “5-HT1c selectivity (low IC50 in 5-HT1c assay, higher IC50 in 5-HT2 assay)” value (5-HT1c receptor [2])?
A: particularly 5-HT1c selective

Q: How did the IC50 (5-HT1c receptor [1]) turn out when `COc1ccc(CC2c3[nH]c4ccc(C)cc4c3CCN2C)c(Cl)c1OC` (stereo not shown) [Example 44, 2,6-dimethyl-1-[(2-chloro-3,4-dimethoxyphenyl)methyl]-1,2,3,4-tetrahydro-9H-pyrido[3,4-b]indole hydrochloride] was run?
A: 386 nM

Q: With `COc1ccc(CC2NCCc3c2[nH]c2ccc(C)c(F)c32)cc1OC` (stereo not shown) [Example 9, 5-fluoro-6-methyl-1-[(3,4-dimethoxyphenyl)-methyl]-1,2,3,4-tetrahydro-9H-pyrido[3,4-b]indole] as the compound, how does the IC50 (5-HT2 receptor; [3]) read?
A: 141 nM

Q: What about the IC50 (5-HT1c receptor [1]) of the same compound?
A: 18 nM

Q: For `CCc1ccc2[nH]c3c(c2c1)CCN[C@H]3[C@H](C)c1ccc(OC)c(OC)c1` (relative stereo) [Example 42, (±) 6-ethyl-1-[(3,4-dimethoxyphenyl)-1-ethyl]-1,2,3,4-tetrahydro-9H-pyrido[3,4-b]indole (Z)-2-butenedioate], which IC50 (5-HT2 receptor; [3]) is on record?
A: 211 nM

Q: What about the IC50 (5-HT1c receptor [1]) of the same compound?
A: 86 nM

Q: For `COc1ccc(CC2NCCc3c2[nH]c2ccc(Br)cc32)cc1OC` (stereo not shown) [Example 18, 6-bromo-1,2,3,4-tetrahydro-1-[(3,4-dimethoxyphenyl)methyl]-9H-pyrido[3,4b]indole], which IC50 (5-HT2 receptor; [3]) is on record?
A: 287 nM

Q: And the IC50 (5-HT1c receptor [1])?
A: 119 nM

Q: What does the source list for `COc1cc(CC2NCCc3c2[nH]c2ccc(C)cc32)cc(I)c1OC` (stereo not shown) [Example 29, 6-methyl-1-[(3-iodo-4,5-dimethoxy-phenyl)-methyl]-1,2,3,4-tetrahydro-9H-pyrido[3,4-b]indole]?
A: IC50 (5-HT2 receptor; [3]): 1010 nM; IC50 (5-HT1c receptor [1]): 257 nM

Q: How did the IC50 (5-HT2 receptor; [3]) turn out when `COc1ccc(CC2NCCc3c2[nH]c2ccc(C(C)(C)C)cc32)cc1OC` (stereo not shown) [Example 8, 6-(1,1-dimethylethyl)-1-[(3,4-dimethoxyphenyl)methyl]1,2,3,4-tetrahydro-1-9H-pyrido-[3,4b]indole hydrochloride] was run?
A: > 100 nM

Q: What about the IC50 (5-HT1c receptor [1]) of the same compound?
A: 22 nM

Q: `COc1ccc(CC2NCCc3c2[nH]c2c(C)cccc32)cc1OC` (stereo not shown) [Example 1, 8-methyl-1-[(3,4-dimethoxyphenyl)methyl]-1,2,3,4-tetrahydro-9H-pyrido[3,4-b]indole] was tested. Which IC50 (5-HT2 receptor; [3]) did it give?
A: 310 nM

Q: What about the IC50 (5-HT1c receptor [1]) of the same compound?
A: 213 nM

Q: Which results are given for `CCCOc1ccc(CC2NCCc3c2[nH]c2ccc(C)cc32)cc1OC` (stereo not shown) [Example 31, 6-methyl-1-[(3-methoxy-4-propoxyphenyl)-methyl]-1,2,3,4-tetrahydro-9H-pyrido[3,4-b]indole]?
A: IC50 (5-HT2 receptor; [3]): 385 nM; IC50 (5-HT1c receptor [1]): 107 nM

Q: For `COc1ccc(CC2NCCc3c2[nH]c2ccc(C4CCCCC4)cc32)cc1OC` (stereo not shown) [Example 11, 6-cyclohexyl-1-[(3,4-dimethoxyphenyl)-methyl]-1,2,3,4-tetrahydro-9H-pyrido[3,4-b]indole hydrochloride], which IC50 (5-HT2 receptor) is on record?
A: > 1000 nM

Q: What about the IC50 (5-HT1c receptor [1]) of the same compound?
A: 365 nM

Q: How did the IC50 (5-HT2 receptor; [3]) turn out when `COc1ccc(CC2NCCc3c2[nH]c2ccc(C)cc32)cc1OC` (stereo not shown) [Example 20, 6-methyl-1,2,3,4-tetrahydro-1-[(3,4-dimethoxyphenyl)methyl]-9H-pyrido[3,4b]indole hydrochloride] was run?
A: 129 nM

Q: What about the IC50 (5-HT1c receptor [1]) of the same compound?
A: 100 nM

Q: With `Cc1ccc2[nH]c3c(c2c1)CCNC3Cc1ccc(C)c(C)c1` (stereo not shown) [Example 35, 6-methyl-1-[(3,4-dimethylphenyl)methyl]-1,2,3,4-tetrahydro-9H-pyrido[3,4-b]indole hydrochloride] as the compound, how does the IC50 (5-HT2 receptor) read?
A: > 100 nM

Q: What about the IC50 (5-HT1c receptor [1]) of the same compound?
A: 61 nM

Q: How did the IC50 (5-HT2 receptor; [3]) turn out when `CCc1ccc2[nH]c3c(c2c1)CCNC3Cc1ccc(OC)c(OC)c1` (stereo not shown) [Example 17, 6-ethyl-1,2,3,4-tetrahydro-1-[(3,4-dimethoxyphenyl)methyl]-9H-pyrido[3,4b]indole] was run?
A: 286 nM

Q: What about the IC50 (5-HT1c receptor [1]) of the same compound?
A: 73 nM

Q: For `COc1ccc(CC2c3[nH]c4ccc(C(C)C)cc4c3CCN2C)cc1OC` (stereo not shown) [Example 45, 2-methyl-6-(1-methylethyl)-1,2,3,4-tetrahydro-1-[(3,4-dimethoxyphenyl)methyl]-9H-pyrido-[3,4b]indole maleate], which IC50 (5-HT1c receptor [1]) is on record?
A: 452 nM

Q: Which IC50 (5-HT2 receptor; [3]) does the source give for `COc1ccc(CC2NCCc3c2[nH]c2c(C)ccc(C)c32)cc1OC` (stereo not shown) [Example 12, 5,8-dimethyl-1,2,3,4-tetrahydro-1-[(3,4-dimethoxyphenyl)methyl]-9H-pyrido[3,4b]indole hydrochloride] here?
A: > 100 nM

Q: What about the IC50 (5-HT1c receptor [1]) of the same compound?
A: 15 nM

Q: With `COc1ccc(OC)c(CC2NCCc3c2[nH]c2ccc(C)cc32)c1` (stereo not shown) [Example 25, 6-methyl-1-[(2,5-dimethoxyphenyl)methyl]-1,2,3,4-tetrahydro-9H-pyrido[3,4-b]indole hydrochloride] as the compound, how does the IC50 (5-HT1c receptor [1]) read?
A: 79 nM

Q: Which results are given for `COc1ccc(CC2NCCc3c2[nH]c2c(OC)cccc32)cc1OC` (stereo not shown) [Example 5, 8-methoxy-1-[(3,4-dimethoxyphenyl)methyl]-1,2,3,4-tetrahydro-9H-pyrido[3,4-]indole]?
A: IC50 (5-HT2 receptor; [3]): 255 nM; IC50 (5-HT1c receptor [1]): 237 nM

Q: Which IC50 (5-HT2 receptor) does the source give for `COc1cc(CC2NCCc3c2[nH]c2ccc(C)cc32)cc(N)c1OC` (stereo not shown) [Example 30, 6-methyl-1-[(3,4-dimethoxy-5-amino-phenyl)-methyl]-1,2,3,4-tetrahydro-9H-pyrido[3,4-b]indole dihydrochloride] here?
A: 792 nM

Q: What about the IC50 (5-HT1c receptor [1]) of the same compound?
A: 224 nM

Q: With `COc1ccccc1CC1NCCc2c1[nH]c1ccc(C)cc21` (stereo not shown) [Example 23, 6-methyl-1-[(2-methoxyphenyl)methyl]-1,2,3,4-tetrahydro-9H-pyrido[3,4-b]indole hydrochloride] as the compound, how does the IC50 (5-HT1c receptor [1]) read?
A: 57 nM

Q: `COc1ccc(CC2NCCc3c2[nH]c2ccc(C)cc32)c(OC)c1` (stereo not shown) [Example 24, 6-methyl-1-[(2,4-dimethoxyphenyl)methyl]-1,2,3,4-tetrahydro-9H-pyrido[3,4-b]indole hydrochloride] was tested. Which IC50 (5-HT2 receptor) did it give?
A: 74 nM

Q: What about the IC50 (5-HT1c receptor [1]) of the same compound?
A: 17 nM

Q: How did the IC50 (5-HT2 receptor) turn out when `COc1ccc(CC2NCCc3c2[nH]c2ccc(C)c(F)c32)c(Cl)c1OC` (stereo not shown) [Example 38, 5-fluoro-6-methyl-1-[(2-chloro-3,4-dimethoxyphenyl)methyl]-1,2,3,4-tetrahydro-9H-pyrido[3,4-b]indole hydrochloride] was run?
A: > 100 nM

Q: What about the IC50 (5-HT1c receptor [1]) of the same compound?
A: 11 nM

Q: What does the source list for `Cc1ccc2[nH]c3c(c2c1)CCNC3CC1CCCCC1` (stereo not shown) [Example 39, 6-methyl-1-(cyclohexylmethyl)-1,2,3,4-tetrahydro-9H-pyrido[3,4-b]indole hydrochloride]?
A: IC50 (5-HT2 receptor): 620 nM; IC50 (5-HT1c receptor [1]): 498 nM

Q: What does the source list for `COc1cc(CC2NCCc3c2[nH]c2ccc(C)cc32)cc([N+](=O)[O-])c1OC` (stereo not shown) [Example 28, 6-methyl-1-[(3,4-dimethoxy-5-nitrophenyl)-methyl]-1,2,3,4-tetrahydro-9H-pyrido[3,4-b]indole hydrochloride]?
A: IC50 (5-HT2 receptor): 1000 nM; IC50 (5-HT1c receptor [1]): 404 nM

Q: How did the IC50 (5-HT2 receptor) turn out when `COc1ccc(CC2NCCc3c2[nH]c2ccc(C)cc32)c(Cl)c1OC` (stereo not shown) [Example 36, 6-methyl-1-[(2-chloro-3,4-dimethoxyphenyl)-methyl]-1,2,3,4-tetrahydro-9H-pyrido[3,4-b]indole hydrochloride] was run?
A: 100 nM

Q: What about the IC50 (5-HT1c receptor [1]) of the same compound?
A: 57 nM

Q: `COc1cc(CC2NCCc3c2[nH]c2ccc(C)cc32)cc(OC)c1OC` (stereo not shown) [Example 21, 6-methyl-1-[(3,4,5-trimethoxyphenyl)-methyl]-1,2,3,4-tetrahydro-9H-pyrido[3,4-b]indole hydrochloride] was tested. Which IC50 (5-HT2 receptor) did it give?
A: 1080 nM

Q: And the IC50 (5-HT1c receptor [1])?
A: 83 nM

Q: Which IC50 (5-HT1c receptor [1]) does the source give for `COc1cc(OC)c(OC)cc1CC1NCCc2c1[nH]c1ccc(C)cc21` (stereo not shown) [Example 26, 6-methyl-1-[(2,4,5-trimethoxyphenyl)-methyl]-1,2,3,4-tetrahydro-9H-pyrido[3,4-b]indole hydrochloride] here?
A: 53 nM

Q: For `COc1c(O)ccc(CC2NCCc3c2[nH]c2ccc(C)cc32)c1Cl` (stereo not shown) [Example 37, 6-methyl-1-[(2-chloro-3-methoxy-4-hydroxyphenyl)methyl]-1,2,3,4-tetrahydro-9H-pyrido[3,4-b]-indole hydrochloride], which IC50 (5-HT2 receptor) is on record?
A: 100 nM

Q: What about the IC50 (5-HT1c receptor [1]) of the same compound?
A: 29 nM

Q: For `COc1ccc(CC2NCCc3c2[nH]c2c(C)c(C)ccc32)cc1OC` (stereo not shown) [Example 19, 7,8-dimethyl-1,2,3,4-tetrahydro-1-[(3,4-dimethoxyphenyl)methyl]-9H-pyrido[3,4b]indole hydrochloride], which IC50 (5-HT2 receptor; [3]) is on record?
A: > 100 nM

Q: And the IC50 (5-HT1c receptor [1])?
A: 21 nM

Q: How did the IC50 (5-HT2 receptor) turn out when `COc1ccc(CC2NCCc3c2[nH]c2ccc(C)cc32)cc1F` (stereo not shown) [Example 34, 6-methyl-1-[(3-fluoro-4-methoxyphenyl)-methyl]-1,2,3,4-tetrahydro-9H-pyrido[3,4-b]indole hydrochloride] was run?
A: 250 nM

Q: And the IC50 (5-HT1c receptor [1])?
A: 95 nM
